Measurements taken from publication PMC12733323, “Novel Mono-Substituted 4H-1,2,6-Thiadiazines with Antioxidant and Anti-Lipoxygenase Activities” (International Journal of Molecular Sciences, 2025).
Like-named read-outs stand apart in the source and are kept apart here.

Experiments:
[1] = Inhibition of AAPH-induced linoleic acid peroxidation
Excerpt: In the lipid peroxidation assay, sodium linoleate was used as the substrate, while 2,2′-azobis(2-methylpropionamidine) dihydrochloride (AAPH) was the peroxyl radical initiator. The formation of 13-hydroperoxy-linoleic acid from linoleic acid was observed by UV-Vis absorption measurements at 234 nm. Trolox was used as a reference compound.
AAPH was used as an alkyl peroxyl radical inducer. In this experiment, the compounds’ ability to prevent linoleic acid oxidation by alkyl peroxyl radicals through absorbance changes at 234nm was evaluated, corresponding to the production of 13-hydroperoxy-linoleic acid. Trolox was used as the reference compound.

soybean lipoxygenase = target: T1, soybean lipoxygenase (Glycine max, UniProt P08170); assay: Inhibition of soybean lipoxygenase; assay type: biochemical; details: for inhibition at 100 µM: read-out: LOX % Inhibition 100 μM
T1 sequence (P08170 1-839): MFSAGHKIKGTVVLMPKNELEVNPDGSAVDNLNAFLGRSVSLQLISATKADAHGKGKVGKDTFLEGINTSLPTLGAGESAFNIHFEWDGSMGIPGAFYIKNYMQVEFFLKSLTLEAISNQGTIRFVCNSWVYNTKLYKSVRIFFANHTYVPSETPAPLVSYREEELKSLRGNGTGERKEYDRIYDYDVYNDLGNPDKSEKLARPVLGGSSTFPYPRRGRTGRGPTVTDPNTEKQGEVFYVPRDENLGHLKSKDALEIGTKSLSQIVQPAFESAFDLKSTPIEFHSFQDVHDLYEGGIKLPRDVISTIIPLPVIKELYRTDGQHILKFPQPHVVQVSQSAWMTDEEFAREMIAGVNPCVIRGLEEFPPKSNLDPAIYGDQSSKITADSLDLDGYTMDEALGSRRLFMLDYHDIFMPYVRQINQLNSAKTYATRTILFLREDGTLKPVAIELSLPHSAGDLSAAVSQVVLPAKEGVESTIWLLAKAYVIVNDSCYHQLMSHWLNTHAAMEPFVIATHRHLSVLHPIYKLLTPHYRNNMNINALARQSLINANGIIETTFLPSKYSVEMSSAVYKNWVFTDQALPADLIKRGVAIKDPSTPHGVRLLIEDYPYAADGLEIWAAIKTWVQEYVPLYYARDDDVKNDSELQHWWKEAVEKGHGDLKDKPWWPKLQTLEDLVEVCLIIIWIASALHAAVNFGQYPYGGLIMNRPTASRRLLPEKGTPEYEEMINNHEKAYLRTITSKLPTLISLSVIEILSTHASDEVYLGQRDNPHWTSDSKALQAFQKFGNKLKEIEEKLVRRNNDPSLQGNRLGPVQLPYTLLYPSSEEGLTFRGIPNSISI
Experimental: Lipoxygenase (LOX) plays a key role in the formation of leukotrienes, which are important inflammatory mediators. Leukotrienes are considered key therapeutic targets in inflammatory diseases due to their role. Soybean lipoxygenase (LOX), a plant-based enzyme, has long been used as a model system to study the structural and functional characteristics of the lipoxygenase family due to its significant homology with human 5-LOX [39].
Sodium linoleate (0.1 mM), 0.2 mL of soybean lipoxygenase solution (1/9 × 10^−4 w/v in saline), and 10 μL of the test compound stock solution (10 mM in DMSO) were incubated at room temperature. The formation of 13-hydroperoxy-linoleic acid was monitored by measuring absorbance at 234 nm. […] A couple of concentrations of the test compounds were used to calculate the IC50 values.

[2] = Interaction with the stable free radical DPPH (reducing activity)
Experimental: The synthesized derivatives were tested for their interaction with the stable free radical 2,2-diphenyl-1-picrylhydrazyl (DPPH) at a concentration of 100 μM after 20 and 60 min (Table 4). DPPH is widely used as a standard method for evaluating antioxidant activity. […] However, lipophilic compounds typically dissolve efficiently in organic solvents when they react with DPPH. The relationship between antioxidant activity and lipophilicity was reported in previous studies.
In vitro assays were carried out to evaluate the reducing activity of the novel derivatives against the DPPH stable radical. Free radical scavenging activity was determined by measuring absorbance at 517 nm after 20 and 60 min at room temperature. NDGA served as the reference compound. (Table 4).

Compound	%AAPH (100 µM) [1]	IC50 (soybean lipoxygenase) [µM]	RA%, DPPH, 20 min (100 µM) [2]	RA%, DPPH, 60 min (100 µM) [2]	inhibition at 100 µM (soybean lipoxygenase) [%]	IC50 (soybean lipoxygenase; read-out: LOX IC50) [µM]	RA%, DPPH, 60 min (100 µM) ([2]; listed as ΝDGA) [%]
O=c1c(Cl)nsnc1N1CCN(c2ccccc2)CC1 [Compound 9a, 3-Chloro-5-(4-phenylpiperazin-1-yl)-4H-1,2,6-thiadiazin-4-one]	15%	7.5	7%	6%			
O=c1c(Cl)nsnc1N1CCN(C(c2ccccc2)c2ccccc2)CC1 [Compound 9b, 3-(4-Benzhydrylpiperazin-1-yl)-5-chloro-4H-1,2,6-thiadiazin-4-one]	20%	55	2%	2%			
N#CC(C#N)=C1C(Cl)=NSN=C1N1CCN(c2ccccc2)CC1 [Compound 10a, 2-[3-Chloro-5-(4-phenylpiperazin-1-yl)-4H-1,2,6-thiadiazin-4-ylidene]malononitrile]	27%		16%	15%	46		
N#CC(C#N)=C1C(Cl)=NSN=C1N1CCN(C(c2ccccc2)c2ccccc2)CC1 [Compound 10b, 2-[3-(4-Benzhydrylpiperazin-1-yl)-5-chloro-4H-1,2,6-thiadiazin-4-ylidene]malononitrile]	No		no	no		67.5	
Cc1ccnc(Sc2nsnc(Cl)c2=O)n1 [Compound 11a, 3-Chloro-5-[(4-methylpyrimidin-2-yl)thio]-4H-1,2,6-thiadiazin-4-one]	No		2%	no	31		
Cn1nnnc1Sc1nsnc(Cl)c1=O [Compound 11b, 3-Chloro-5-[(1-methyl-1H-tetrazol-5-yl)thio]-4H-1,2,6-thiadiazin-4-one]	45%		3%	3%	44		
O=c1c(Cl)nsnc1Sc1nc2ccccc2o1 [Compound 11c, 3-(Benzo[d]oxazol-2-ylthio)-5-chloro-4H-1,2,6-thiadiazin-4-one]	5%	77.5	21%	22%			
CC(=O)Nc1ccc(Sc2nsnc(Cl)c2=O)cc1 [Compound 11d, N-{4-[(5-Chloro-4-oxo-4H-1,2,6-thiadiazin-3-yl)thio]phenyl}acetamide]	43%	85	1%	2%			
O=c1c(Cl)nsnc1Sc1nnnn1-c1ccccc1 [Compound 11e, 3-Chloro-5-[(1-phenyl-1H-tetrazol-5-yl)thio]-4H-1,2,6-thiadiazin-4-one]	No		15%	17%	50		
Cn1cnnc1Sc1nsnc(Cl)c1=O [Compound 11f, 3-Chloro-5-[(4-methyl-4H-1,2,4-triazol-3-yl)thio]-4H-1,2,6-thiadiazin-4-one]	7%	52.5	10%	12%			
O=c1c(Cl)nsnc1Sc1nccs1 [Compound 11g, 3-Chloro-5-(thiazol-2-ylthio)-4H-1,2,6-thiadiazin-4-one]	No		10%	7%	40		
O=c1c(Cl)nsnc1Sc1nc2ccccc2s1 [Compound 11h, 3-(benzo[d]thiazol-2-ylthio)-5-chloro-4H-1,2,6-thiadiazin-4-one]	No		8%	1%	33		
CCOc1ccc2nc(Sc3nsnc(Cl)c3=O)sc2c1 [Compound 11i, 3-Chloro-5-[(6-ethoxybenzo[d]thiazol-2-yl)thio]-4H-1,2,6-thiadiazin-4-one]	No	67.5	3%	no			
Cc1ccnc(SC2=NSN=C(Cl)C2=C(C#N)C#N)n1 [Compound 12a, 2-{3-Chloro-5-[(4-methylpyrimidin-2-yl)thio]-4H-1,2,6-thiadiazin-4-ylidene}malononitrile]	18%		82%	90%	41		
Cn1nnnc1SC1=NSN=C(Cl)C1=C(C#N)C#N [Compound 12b, 2-{3-Chloro-5-[(1-methyl-1H-tetrazol-5-yl)thio]-4H-1,2,6-thiadiazin-4-ylidene}malononitrile]	No	75	27%	36%			
N#CC(C#N)=C1C(Cl)=NSN=C1Sc1nc2ccccc2o1 [Compound 12c, 2-[3-(Benzo[d]oxazol-2-ylthio)-5-chloro-4H-1,2,6-thiadiazin-4-ylidene]malononitrile]	70%		89%	92%	27		
CC(Cc1ccc(O)c(O)c1)C(C)Cc1ccc(O)c(O)c1 (centres unmarked) [NDGA, Nordihydroguaiaretic acid, reference compound]			87%	87%			93
Cc1c(C)c2c(c(C)c1O)CCC(C)(C(=O)O)O2 (centres unmarked) [Trolox, reference compound]	93%						
